Results reported in US20240238272A1, “TREATMENT OF ANTIPHOSPHOLIPID SYNDROME USING S-HYDROXYCHLOROQUINE” (Genovate Biotechnology Co. Ltd., priority 2021, published 2024).

What was measured:
[1] = biological target: T1, β2-GP1 and antibody binding (Homo sapiens, UniProt P02749); experiment: Dot blot assay of β2-GP1 and antibody binding, THP-1 total lysate; settings: 10 mg/mL, mean ± S.E.M., triplicate
T1 construct: THP-1 is a human peripheral blood monocyte that highly expresses β2-GP1; endogenous in cells; host or cells: THP-1 (human monocyte cell line): total lysate in the dot blot, whole cells in the ELISA
T1 sequence (P02749 20-345): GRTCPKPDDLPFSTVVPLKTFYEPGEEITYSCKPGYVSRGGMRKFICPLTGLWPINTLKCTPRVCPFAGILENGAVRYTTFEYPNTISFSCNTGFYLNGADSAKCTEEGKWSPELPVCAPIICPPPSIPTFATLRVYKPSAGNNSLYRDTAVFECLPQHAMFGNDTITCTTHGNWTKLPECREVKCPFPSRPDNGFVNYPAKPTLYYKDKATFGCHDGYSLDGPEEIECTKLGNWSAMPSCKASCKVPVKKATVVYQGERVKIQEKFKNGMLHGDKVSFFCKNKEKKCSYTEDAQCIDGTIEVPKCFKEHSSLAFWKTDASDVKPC
Experimental: THP-1 is a human peripheral blood monocyte that highly expresses β2-GP1 and is associated with increased APS in patients. Before treating with HCQ, THP-1 cells were fixed in a 3.7% paraformaldehyde solution, blocked in a phosphate-buffered saline (PBS) containing 1% bovine serum albumin (BSA), and incubated with a mouse aPL antibody (A500-006A, Bethyl Laboratories, Montgomery, Texas). Cellular immunofluorescent staining was used to determine β2-GP1 expression.
Separate samples were prepared for a dot blot assay as follows: a THP-1 total lysate was loaded to a polyvinylidene difluoride membrane, blocked with PBS containing 1% BSA, and incubated with mouse anti-β2-GP1 A500-006A, together with S-HCQ, R-HCQ, or racemic HCQ, each at a concentration of 10 mg/mL. A control sample was obtained following the same procedure described above except that no HCQ was added.
(§1) All assays above were performed in triplicate. Reported results are expressed as means±S.E.M. All statistical analyses were performed using a software under the trademark of GraphPad Prism® (Version 8.0. GraphPad Software Inc, San Diego, California). For comparisons between two groups, student's test was used. A p-value<0.05 was considered statistically significant.

[2] = tested on: annexin V on THP-1 cell surfaces; experiment: Restoration of annexin A5 anticoagulant shield on THP-1 cells treated with anti-β2-GP1 IgG; assay type: cell-based, human; settings: 0.5 μg/mL HCQ; comparative sample without HCQ = 1
Experimental: THP-1 cells were first maintained in a RPMI1640 medium (Thermo Fisher Scientific, Waltham, Massachusetts) containing 10% fetal bovine serum, 2 mM L-glutamine, and 50 U/mL penicillin-streptomycin antibiotics. They were then seeded at a density of 8×10^4 cells/well in a 96-well culture plate and were allowed to reach confluence. Subsequently, THP-1 cells were treated with anti-β2-GP1 IgG in the presence of 0.5 μg/mL HCQ. Levels of annexin V on cell surfaces were determined by optical absorbance after the IgG-treated THP-1 cells were rinsed with HBS-CaCl2) solution to remove free annexin V, leaving only annexin V that is attached to the cell surface.
Three samples were prepared each with one of three HCQ (i.e., S-HCQ, R-HCQ, and racemic HCQ) solutions. A comparative sample was obtained following the same procedure described above except that HCQ was not added. A patient serum containing β2-GP1 antibody was used as a control sample.

[3] = tested on: thrombosis induced by anti-β2GP1 antibody; experiment: APS-related thrombosis mice model, femoral vein pinch, clot formation; assay type: in vivo, C57BL/6 male mice
Experimental: C57BL/6 male mice at ages of 8-12 weeks (purchased from BioLasco, Taiwan) were used in this study. All procedures were approved by the Institutional Animal Care Committee of Taipei Medical University. Venous thrombosis was induced in mice using an endothelial injury model. […] They were anesthetized 72 hours after the injection. The right femoral vein was exposed and pinched with a pressure of 1500 g/mm^2 to induce formation of a thrombus. […] As such, the anti-β2GP1 antibody was injected to a mouse at 100 AU for all studies below. Following the procedure described above, a mouse (i.e., HCQ-treated mouse) was injected with 100 AU of the anti-β2GP1 antibody from Patient 5 and 2000 μg racemic-HCQ (200 μl at 10 mg/ml). As a control, a group of mice (n=4; APS-induced mice) were injected with only 100 AU of the anti-β2GP1 antibody. After 72 hours, the right femoral vein of each mouse was exposed and pinched with a pressure of 1500 g/mm^2 to induce formation of a thrombus. Thrombosis time (in minute) was recorded. […] Clots were removed from the femoral vein after pinch for 5 minutes.

[4] = biological target: T2, β2-GP1 and antibody binding (THP-1 cells) (Homo sapiens, UniProt P02749); experiment: ELISA assay of β2-GP1-antibody binding to THP-1 membrane; assay type: cell-based
T2 construct: THP-1 is a human peripheral blood monocyte that highly expresses β2-GP1; endogenous in cells; host or cells: THP-1 (human monocyte cell line): total lysate in the dot blot, whole cells in the ELISA
T2 sequence (P02749 20-345): T1 sequence (P02749 20-345)
Experimental: Subsequently, an ELISA assay was performed to determine whether S-HCQ or R-HCQ inhibiting binding of β2-GP1-antibody complexes to the THP-1 membrane. THP-1 cells thus treated were resuspended to a density of 3.6×10^5 cells/mL in a medium containing 80% RPMI-1640 (Thermo Fisher Scientific, Waltham, Massachusetts), 20% anti-β2-GP1 immunoglobulin G (“IgG”) (0.2 mg/mL) in HEPES-buffered saline (HBS, pH 7.45), and S-HCQ. Three samples were each prepared from a medium having a different S-HCQ concentration, i.e., 1 μg/mL, 2.5 μg/mL, or 5 μg/mL. A control sample was obtained following the same procedure described above except that no S-HCQ was added. Optical absorbance was measured at 450 nm.
as §1

E-selectin = experiment: APS-related thrombosis mice model, serum expression level of E-selectin; assay type: in vivo; settings: for Inhibition (E-selectin): relative to comparative group; for Thrombosis (E-selectin): serum expression level relative to comparative group
Experimental: (§2) Venous thrombosis was induced in mice using an endothelial injury model. Mice were intravenously (IV) injected 7.5% FeCl3 (positive control), saline (negative control), or an APS-derived anti-β2GP1 antibody (from Patient 2) at a dosage of 100, 200, or 300 AU (test group). They were anesthetized 72 hours after the injection. The right femoral vein was exposed and pinched with a pressure of 1500 g/mm^2 to induce formation of a thrombus.
(§3) Based on the APS animal model described above, R-HCQ and S-HCQ were administered to mice for reducing thrombosis. Mice were divided into 6 groups, each of which was injected with (1) IgG as a control group, (2) 100 AU of the anti-β2GPI antibody as a comparative group, (3) a combination of 100 AU of the anti-B2GPI antibody and 300 μg of S-HCQ as treatment group 3, (4) a combination of 100 AU of the anti-B2GPI antibody and 200 μg of S-HCQ as treatment group 4, (5) a combination of 100 AU of the anti-B2GPI antibody and 200 μg of R-HCQ as treatment group 5, or (6) a combination of 100 AU of the anti-β2GP1 antibody and 100 μg of R-HCQ as treatment group 6.
(§4) Serum expression levels of E-selectin and VCAM-1, two biomarkers of APS-related thrombosis, were measured. Percentages of inhibition in treatment groups 3-6 were calculated based on the expression levels of E-selectin and VCAM-1 relative to the comparative group. A low expression level of E-selectin or VCAM-1 indicates high inhibition of thrombosis.

VCAM-1 = experiment: APS-related thrombosis mice model, serum expression level of VCAM-1; assay type: in vivo; settings: for Inhibition (VCAM-1): relative to comparative group; for Thrombosis (VCAM-1): serum expression level relative to comparative group
Experimental: as §2, §3, §4

[5] = tested on: APS-related thrombosis (E-selectin and VCAM-1); experiment: APS-related thrombosis mice model, average of E-selectin and VCAM-1; assay type: in vivo
Experimental: as §2, §3, §4

CCN(CCO)CCCC(C)Nc1ccnc2cc(Cl)ccc12 (racemic) [racemic HCQ, Hydroxychloroquine]
inhibition at 10000 µg/mL [1]: 80%
relative level of annexin V [2]: 3.09
thrombosis time ([3]; 2000 μg with 100 AU anti-β2GP1 antibody, 72 hours after injection, healthy mice 5, APS-induced mice 2): 5 min
thrombus size ([3]; 2000 μg, clots removed after pinch for 5 minutes, versus mice without HCQ treatment): significantly reduced the thrombus size

CCN(CCO)CCC[C@H](C)Nc1ccnc2cc(Cl)ccc12 [S-HCQ, S-(+)-hydroxychloroquine]
inhibition of β2-GP1 and antibody binding [1]: 97%
inhibition rate of β2-GP1 and antibody binding ([4]; 1 μg/mL): 25%
inhibition rate of β2-GP1 and antibody binding ([4]; 2.5 μg/mL): 60%
inhibition rate of β2-GP1 and antibody binding ([4]; 5 μg/mL): 90%
relative level of annexin V [2]: 3.45
Inhibition (E-selectin) (E-selectin; 200 μg): 53.8%
Thrombosis (E-selectin) (E-selectin; 200 μg): 46.2%
Inhibition (E-selectin) (E-selectin; 300 μg): 59.4%
Thrombosis (E-selectin) (E-selectin; 300 μg): 40.6%
Inhibition (VCAM-1) (VCAM-1; 200 μg): 49%
Thrombosis (VCAM-1) (VCAM-1; 200 μg): 50.9%
Inhibition (VCAM-1) (VCAM-1; 300 μg): 52%
Thrombosis (VCAM-1) (VCAM-1; 300 μg): 47.8%
Inhibition Average ([5]; 200 μg): 51.4%
Thrombosis Average ([5]; 200 μg): 48.55%
Inhibition Average ([5]; 300 μg): 55.7%
Thrombosis Average ([5]; 300 μg): 44.2%

CCN(CCO)CCC[C@@H](C)Nc1ccnc2cc(Cl)ccc12 [R-HCQ, (R)-(−)-hydroxychloroquine]
inhibition of β2-GP1 and antibody binding [1]: 23%
relative level of annexin V [2]: 2.54
Inhibition (E-selectin) (E-selectin; 100 μg): 25.2%
Thrombosis (E-selectin) (E-selectin; 100 μg): 74.8%
Inhibition (E-selectin) (E-selectin; 200 μg): 30%
Thrombosis (E-selectin) (E-selectin; 200 μg): 70%
Inhibition (VCAM-1) (VCAM-1; 100 μg): 16.3%
Thrombosis (VCAM-1) (VCAM-1; 100 μg): 83.7%
Inhibition (VCAM-1) (VCAM-1; 200 μg): 23%
Thrombosis (VCAM-1) (VCAM-1; 200 μg): 75%
Inhibition Average ([5]; 100 μg): 20.75%
Thrombosis Average ([5]; 100 μg): 79.25%
Inhibition Average ([5]; 200 μg): 26.5%
Thrombosis Average ([5]; 200 μg): 72.5%
